Data taken from patent publication US7662781B2, “Immunopotentiating agent” (ECI, Inc., priority 2005, dated 2010).

B1: MIP-1α: molecule of about 70 amino acids belonging to the C—C chemokine family, ligand for CCR1 and CCR5 (protein, UniProt P10147 24-92, looked up)
C-C motif chemokine 3: SLAADTPTACCFSYTSRQIPQNFIADYFETSSQCSKPGVIFLTKRSRQVCADPSEEWVQKYVSDLELSA

Experiments:
[1] = test system: Lewis lung carcinoma (3LL); test: Lung metastasis system of intravenously injected 3LL; assay type: in vivo, C57BL/6 mice; settings: 25 mg/mouse, twice a week
Method: By using a lung metastasis system of Lewis lung carcinoma (3LL), the tumor metastasis inhibition effect of eMIP was evaluated. Female C57BL/6 mice aged 7 weeks were employed. 10^6 3LL cells were injected into each animal via the tail vein. After 25 days, the lungs were taken out, weighed and fixed with Bouin' solution. Then, cancer tissues metastasized into the lungs were counted under a stereoscopic microscope. 30 minutes after the 3LL transplantation, eMIP was injected as the first administration followed by continuous administration once a week for 4 weeks. In the system wherein the administration was initiated 7 days after the 3LL transplantation, the effect of eMIP was examined. 5Fu employed as a control was administered twice a week.

[2] = test system: dendritic cell precursors; settings: Yoneyama 2001; Zhang 2004; cited from earlier work

Row | Molecule | inhibition rate of metastasis into the lungs [1] [%] | mobilization of dendritic cell precursors in the blood [2]
1 | O=c1[nH]cc(F)c(=O)[nH]1 [5Fu] | 78 | 
2 | B1 |  | several ten-fold
